Reference: patent US12295957B2, “Ascorbic acid and quinone compounds in combination with an antiparasitic agent for treating a parasitic disease” (IC-MedTech Corp., priority 2018, dated 2025)
Entries after “also recorded” stand apart in the source; their conditions may differ.

Experiments:
Assay type in all cases: in vivo, BALB/c mice
Trypanosoma cruzi [1] = test: Parasitemia by direct microscopic count of blood in mice infected with Trypanosoma cruzi; conditions: 3-21 dpi
Protocol: (§1) Male BALB/c mice (approximately 7-8 weeks) were infected intraperitoneally with 10^4 parasites per mouse. Treatment started 24 hours after infection. The administration of vitamin C (i.e., L-ascorbic acid), vitamin K3 (i.e., 2-methyl-1,4-naphthoquinone or menadione), APATONE®, and benznidazole, alone or in combination, were administered once a day orally in different concentrations.
(§2) The mice were divided into the following groups and each group contained seven mice: • i. infected and not treated; • ii. infected and treated with 200 mg/kg of vitamin C; • iii. infected and treated with 3.5 mg/kg of vitamin K3; • iv. infected and treated with APATONE® (200 mg/kg of vitamin C and 3.5 mg/kg of vitamin K3); • v. infected and treated with APATONE® (200 mg/kg of vitamin C and 3.5 mg/kg of vitamin K3) plus 5 mg/kg benznidazole; • vi. infected and treated with benznidazole at 5 mg/kg; • vii. infected and treated with benznidazole at 100 mg/kg; and • viii. not infected and not treated.
Parasitemia levels were individually checked every day starting from 3 days postinfection (dpi) over a 21-day period by direct microscopic analysis of 5 μL blood drawn by puncture of the tail tip of each mouse. The parasites present in 50 fields were counted in 40× objective. Mortality was checked daily until 21 dpi and was expressed as a percentage of survival. […]

Trypanosoma cruzi [2] = test: Survival/mortality of mice with acute Trypanosoma cruzi infection; conditions: for mortality: vitamin C 200 mg/kg or vitamin K3 3.5 mg/kg alone, orally once a day
Protocol: as §1, §2
Parasitemia levels were individually checked every day starting from 3 days postinfection (dpi) over a 21-day period by direct microscopic analysis of 5 μL blood drawn by puncture of the tail tip of each mouse. The parasites present in 50 fields were counted in 40× objective. Mortality was checked daily until 21 dpi and was expressed as a percentage of survival. All assays were carried out after the approval of the Ethical Conduct on the use of Animals in Experiments (CEAE) of UE111, protocol number CEUA 6642060717.

IL-6 = test: Heart cytokine level (cytokine bead array, flow cytometry) in T. cruzi infected mice: IL-6
Protocol: (§3) Cytokine analysis was performed on the mice infected with T. cruzi. A cytokine bead (CBA) kit was used to quantify the levels of Th1 cytokines (IL-2, TNF-α, and INF-γ), Th2 (IL-4, IL-5, and IL-10A), and Th17 (IL-17) by flow cytometry. Seven bead populations with different fluorescence intensities were conjugated to a specific capture antibody for each cytokine, mixed to the CBA and read […] FL3 channel of a FACSCalibur flow cytometer. The populations of beads were visualized according to their respective fluorescence intensities: from less bright to brighter.
(§4) Acquisition tubes were prepared with: 50 μL of a sample, 50 μL of beads, and 50 μL of Th1/Th2/Th17 PE (Mouse Th1/Th2/Th17 PE Detection Reagent/1 vial, 4 mL). The same procedure was performed to obtain a standard curve. The samples in the tubes were homogenized and incubated for three hours at room temperature in dark. The data acquisition and analysis were performed using a FACSCalibur flow cytometer equipped with a CellQuest software.
(§5) The levels of proinflammatory (IL-6, TNF-α, INF-γ, IL-2, and IL-17) and anti-inflammatory cytokines (IL-4 and IL-10) in heart (FIG. 3) in blood were determined on the mice infected with T. cruzi. […] However, the levels of IL-6 and TNF-α in this group were still high compared with the uninfected and untreated group. […] Thus, it is likely that the high levels of IL-6 and TNF-α in the mice infected with T. cruzi and treated with benznidazole (5 mg) are related to the inflammatory process induced by the parasite in the bloodstream. […] Thus, it is likely that the high levels of IL-6 and TNF-α in the mice infected with T. cruzi and treated with benznidazole (100 mg) are related to the proinflammatory activity of benznidazole (a side effect). […] The levels of IL-6, TNF-α, and IFN-γ in the group treated with APATONE® and benznidazole (5 mg/kg/day) in combination are similar to the levels of IL-6, TNF-α and IFN-γ in the uninfected and untreated group.

TNF-α = test: Heart cytokine level (cytokine bead array, flow cytometry) in T. cruzi infected mice: TNF-α
Protocol: as §3, §4, §5

[3] = benznidazole alone at 5 mg/kg, seven mice per group, until 21 dpi

Structure (SMILES)	parasites in the bloodstream (parasitemia) (Trypanosoma cruzi [1]; benznidazole alone at 5 mg/kg orally once a day, 5 mg/kg)	parasites in the bloodstream (parasitemia) (Trypanosoma cruzi [1]; benznidazole alone at 100 mg/kg orally once a day, 100 mg/kg)	mice remaining (Trypanosoma cruzi [2]; [3])	mice that died (Trypanosoma cruzi [2]; [3])	mice that died (Trypanosoma cruzi [2]; benznidazole alone at 100 mg/kg, until 21 dpi)	level of IL-6 in heart compared with the infected and untreated group (IL-6; benznidazole at 5 mg)	level of IL-6 in heart compared with the uninfected and untreated group (IL-6; benznidazole at 5 mg)	level of IL-6 in heart compared with the infected and untreated group (IL-6; benznidazole at 100 mg)	level of IL-6 in heart compared with the uninfected and untreated group (IL-6; benznidazole at 100 mg)	level of TNF-α in heart compared with the infected and untreated group (TNF-α; benznidazole at 5 mg)	level of TNF-α in heart compared with the uninfected and untreated group (TNF-α; benznidazole at 5 mg)	level of TNF-α in heart compared with the infected and untreated group (TNF-α; benznidazole at 100 mg)	level of TNF-α in heart compared with the uninfected and untreated group (TNF-α; benznidazole at 100 mg)	mortality (Trypanosoma cruzi [2])
O=C(Cn1ccnc1[N+](=O)[O-])NCc1ccccc1 [benznidazole]	did not decrease the amount of parasites	no parasite was observed; also recorded: no parasite detected	4 mice	Three mice died	No mice died	significant decrease	still high	significant decrease	still high	significant decrease	still high	significant decrease	still high	
O=C1O[C@H]([C@@H](O)CO)C(O)=C1O [vitamin C, L-ascorbic acid]														died from day 14
CC1=CC(=O)c2ccccc2C1=O [vitamin K3, 2-methyl-1,4-naphthoquinone]														died from day 14
